Literature values, collected in paper PMC7395068, “The evolution of strategies to minimise the risk of human drug-induced liver injury (DILI) in drug discovery and development” (Archives of Toxicology, 2020).
Where a name gives a salt, the structure may show the parent alone. Read-outs that look alike come from different tables or passages of the source. *1 amine or outer side, *2 acyl side, *3 side chain or, on linkers, in order; H or OH if unused. Where a SMILES comes first, the peptide text is derived from it. Bridges are numbered along the chain shown (N, C = ends). [ ]: non-standard residue; d: D form. The star is where a group is joined. pTerphenylCO(4''-OnC5H11) = CCCCCOc1ccc(-c2ccc(-c3ccc(C(=O)*)cc3)cc2)cc1; Orn(4R-OH,5R-OH) = O=C([C@H](C[C@@H](O)[C@@H](O)N[*:3])N[*:1])[*:2]; hTyr(3S-OH,4S-OH) = N[C@H](C(=O)O)[C@H](O)[C@@H](O)c1ccc(O)cc1; Pro(3S-OH,4S-Me) = C[C@H]1CN[C@H](C(=O)O)[C@H]1O; dPhe(4-Cl) = N[C@H](Cc1ccc(Cl)cc1)C(=O)O; d2Nal = N[C@H](Cc1ccc2ccccc2c1)C(=O)O; Hyp = O=C(O)[C@@H]1C[C@@H](O)CN1; dCit = NC(=O)NCCC[C@@H](N)C(=O)O; d3Pal = N[C@H](Cc1cccnc1)C(=O)O

Settings: cited from earlier work
[1] = binary in vivo human DILI call, ref Chen 2016
[2] = human DILI, LTKB DILIrank category, ref Chen 2016
[3] = binary in vivo DILI call given beside the severity category, ref Chen 2016
[4] = human DILI concern category (LTKB DILIrank), ref Chen 2016
[5] = LTKB DILIrank category, ref Chen 2016
[6] = binary DILI call, ref Chen 2016

Compound: O=C1OC2(c3ccc(O)cc3Oc3cc(O)ccc32)c2ccccc21 [fluorescein]
- DILI +VE (5-8), DILI -VE (-4) [1]: -VE
- DILI severity category [2]: vNo-DILI-Concern

Compound: c1ccc2[nH]c(-c3cscn3)nc2c1 [thiabendazole]
- DILI +VE (5-8), DILI -VE (-4) [3]: +VE
- DILI severity category [4]: vMost-DILI-Concern

Compound: CN(C)CCc1c[nH]c2ccc(CS(=O)(=O)N3CCCC3)cc12 [almotriptan]
- DILI severity category [5]: vNo-DILI-Concern
- DILI +VE (5-8), DILI -VE (-4) [6]: -VE

Compound: O=S(=O)(O)CCS [mesna]
- DILI +VE (5-8), DILI -VE (-4) [3]: -VE
- DILI severity category [4]: Ambiguous DILI-concern

Compound: C[C@@H](CN1CC(=O)NC(=O)C1)N1CC(=O)NC(=O)C1 [dexrazoxane]
- DILI +VE (5-8), DILI -VE (-4) [1]: -VE
- DILI severity category [2]: Ambiguous DILI-concern

Compound: filgrastim
- DILI +VE (5-8), DILI -VE (-4) (in vivo): -VE
- DILI severity category (in vivo): Ambiguous DILI-concern

Compound: CC(C)Nc1cccnc1N1CCN(C(=O)c2cc3cc(NS(C)(=O)=O)ccc3[nH]2)CC1 [delavirdine]
- DILI +VE (5-8), DILI -VE (-4) [1]: -VE
- DILI severity category [2]: Ambiguous DILI-concern

Compound: CSCC[C@H](NC(=O)[C@H](Cc1c[nH]c2ccccc12)NC(=O)CCNC(=O)OC(C)(C)C)C(=O)N[C@@H](CC(=O)O)C(=O)N[C@@H](Cc1ccccc1)C(N)=O [pentagastrin]
- DILI +VE (5-8), DILI -VE (-4) (in vivo): -VE
- DILI severity category (in vivo): vNo-DILI-Concern

Compound: nesiritide
- DILI +VE (5-8), DILI -VE (-4) (in vivo): -VE
- DILI severity category (in vivo): vNo-DILI-Concern

Compound: COc1ccnc(C[S+]([O-])c2nc3ccc(OC(F)F)cc3[nH]2)c1OC (centres unmarked) [pantoprazole]
- DILI +VE (5-8), DILI -VE (-4) [3]: +VE
- DILI severity category [4]: vLess-DILI-Concern

Compound: Cc1ccccc1N1C(=O)c2cc(S(N)(=O)=O)c(Cl)cc2NC1C (centres unmarked) [metolazone]
- DILI +VE (5-8), DILI -VE (-4) [3]: -VE
- DILI severity category [4]: Ambiguous DILI-concern

Compound: C[C@@H](O[C@H]1OCCN(Cc2nc(O)n(P(=O)(O)O)n2)[C@H]1c1ccc(F)cc1)c1cc(C(F)(F)F)cc(C(F)(F)F)c1 [fosaprepitant]
- DILI +VE (5-8), DILI -VE (-4) [1]: -VE
- DILI severity category [2]: Ambiguous DILI-concern

Compound: omalizumab
- DILI +VE (5-8), DILI -VE (-4) (in vivo): -VE
- DILI severity category (in vivo): vNo-DILI-Concern

Compound: CC(=O)N[C@H](Cc1ccc2ccccc2c1)C(=O)N[C@H](Cc1ccc(Cl)cc1)C(=O)N[C@H](Cc1cccnc1)C(=O)N[C@@H](CO)C(=O)N[C@@H](Cc1ccc(O)cc1)C(=O)N[C@H](CCCNC(N)=O)C(=O)N[C@@H](CC(C)C)C(=O)N[C@@H](CCCNC(=N)N)C(=O)N1CCC[C@H]1C(=O)N[C@H](C)C(N)=O [cetrorelix] (Ac-[d2Nal][dPhe(4-Cl)][d3Pal]SY[dCit]LRP[dA]-NH2)
- DILI severity category [5]: Ambiguous DILI-concern
- DILI +VE (5-8), DILI -VE (-4) [6]: -VE

Compound: C=C1CC[C@@]2(O)[C@H]3Cc4ccc(O)c5c4[C@@]2(CCN3CC2CC2)[C@H]1O5 [nalmefene hydrochloride]
- DILI +VE (5-8), DILI -VE (-4) [3]: -VE
- DILI severity category [4]: Ambiguous DILI-concern

Compound: O=[N+]([O-])O[C@@H]1CO[C@H]2[C@@H]1OC[C@@H]2O [isorbide mononitrate]
- DILI +VE (5-8), DILI -VE (-4) (in vivo): -VE
- DILI severity category (in vivo): Ambiguous DILI-concern

Compound: C[C@H](Cc1cc2c(c(C(N)=O)c1)N(CCCO)CC2)NCCOc1ccccc1OCC(F)(F)F [silodosin]
- DILI +VE (5-8), DILI -VE (-4) [3]: -VE
- DILI severity category [4]: Ambiguous DILI-concern

Compound: CNCC[C@@H](Oc1ccccc1C)c1ccccc1 [atomoxetine]
- DILI severity category [5]: vMost-DILI-Concern

Compound: CCC[C@@H]1C[C@@H](C(=O)N[C@@H]([C@H]2O[C@H](SC)[C@H](O)[C@@H](O)[C@H]2O)[C@H](C)Cl)N(C)C1 [clindamycin]
- DILI severity category (in vivo): vLess-DILI-Concern

Compound: NCCCCCC(=O)O [aminocaproic acid]
- DILI severity category [5]: vNo-DILI-Concern
- DILI +VE (5-8), DILI -VE (-4) [6]: -VE

Compound: C=C1/C(=C\C=C2/CCC[C@]3(C)[C@@H]([C@H](C)CCCC(C)(C)O)CC[C@@H]23)C[C@@H](O)C[C@@H]1O [calcitriol]
- DILI severity category [5]: vNo-DILI-Concern
- DILI +VE (5-8), DILI -VE (-4) [6]: -VE

Compound: CCCCCOc1ccc(-c2ccc(-c3ccc(C(=O)N[C@H]4C[C@@H](O)[C@@H](O)NC(=O)[C@@H]5[C@@H](O)[C@@H](C)CN5C(=O)[C@H]([C@@H](C)O)NC(=O)[C@H]([C@H](O)[C@@H](O)c5ccc(O)cc5)NC(=O)[C@@H]5C[C@@H](O)CN5C(=O)[C@H]([C@@H](C)O)NC4=O)cc3)cc2)cc1 [anidulafungin] ({pTerphenylCO(4''-OnC5H11)}-[Orn(4R-OH,5R-OH)]T[Hyp][hTyr(3S-OH,4S-OH)]T[Pro(3S-OH,4S-Me)]; lactam 1-C)
- DILI severity category [5]: Ambiguous DILI-concern
- DILI +VE (5-8), DILI -VE (-4) [6]: -VE

Compound: CCCCCc1cc(O)c2c(c1)OC(C)(C)[C@@H]1CCC(C)=C[C@@H]21 [marinol]
- DILI +VE (5-8), DILI -VE (-4) (in vivo): -VE
- DILI severity category (in vivo): Ambiguous DILI-concern

Compound: COc1cc2nc(N3CCN(C(=O)c4ccco4)CC3)nc(N)c2cc1OC [prazosin]
- DILI +VE (5-8), DILI -VE (-4) (in vivo): -VE
- DILI severity category (in vivo): Ambiguous DILI-concern

Compound: Nc1ccn(C[C@@H](CO)OCP(=O)(O)O)c(=O)n1 [cidofovir]
- DILI severity category [5]: Ambiguous DILI-concern
- DILI +VE (5-8), DILI -VE (-4) [6]: -VE

Compound: ustekinumab
- DILI +VE (5-8), DILI -VE (-4) (in vivo): -VE
- DILI severity category (in vivo): vNo-DILI-Concern

Compound: C/C1=C2/[N-][C@H]([C@H](CC(N)=O)[C@@]2(C)CCC(=O)NC[C@@H](C)OP(=O)([O-])O[C@H]2[C@@H](O)[C@@H](n3cnc4cc(C)c(C)cc43)O[C@@H]2CO)[C@]2(C)N=C(/C(C)=C3N=C(/C=C4N=C1[C@@H](CCC(N)=O)C\4(C)C)[C@@H](CCC(N)=O)[C@]\3(C)CC(N)=O)[C@@H](CCC(N)=O)[C@]2(C)CC(N)=O.[Co+3].[OH-] [hydroxocobalamin]
- DILI +VE (5-8), DILI -VE (-4) [1]: -VE
- DILI severity category [2]: Ambiguous DILI-concern

Compound: CC(=O)/N=c1/sc(S(N)(=O)=O)nn1C [methazolamide]
- DILI +VE (5-8), DILI -VE (-4) [3]: +VE
- DILI severity category [4]: vLess-DILI-Concern

Compound: CCC(=O)NCC[C@@H]1CCc2ccc3c(c21)CCO3 [ramelteon]
- DILI +VE (5-8), DILI -VE (-4) [3]: -VE
- DILI severity category [4]: vNo-DILI-Concern

Compound: aldesleukin
- DILI +VE (5-8), DILI -VE (-4) (in vivo): -VE
- DILI severity category (in vivo): Ambiguous DILI-concern

Compound: abciximab
- DILI +VE (5-8), DILI -VE (-4) (in vivo): -VE
- DILI severity category (in vivo): vNo-DILI-Concern

Compound: CN(C)CCOC(c1ccc(Cl)cc1)c1ccccn1 (centres unmarked) [carbinoxamine]
- DILI severity category [5]: vNo-DILI-Concern
- DILI +VE (5-8), DILI -VE (-4) [6]: -VE

Compound: CC(=O)Oc1ccc(C2(c3ccc(OC(C)=O)cc3)C(=O)N(C(C)=O)c3ccccc32)cc1 [triacetyldiphenolisatin]
- DILI +VE (5-8), DILI -VE (-4) [3]: +VE
- DILI severity category [4]: vMost-DILI-Concern

Compound: CCCCNc1ccc(C(=O)OCCOCCOCCOCCOCCOCCOCCOCCOCCOC)cc1 [benzonatate]
- DILI severity category [5]: vLess-DILI-Concern

Compound: CC(C)(C(=O)c1cccnc1)c1cccnc1 [metyrapone]
- DILI +VE (5-8), DILI -VE (-4) [3]: -VE
- DILI severity category [4]: vNo-DILI-Concern

Compound: CCCCC(C)(O)C/C=C/[C@H]1[C@H](O)CC(=O)[C@@H]1CCCCCCC(=O)OC (mixture of isomers) [misoprostol]
- DILI +VE (5-8), DILI -VE (-4) (in vivo): -VE
- DILI severity category (in vivo): Ambiguous DILI-concern

Compound: CC[N+](CC)(CCNC(=O)C(=O)NCC[N+](CC)(CC)Cc1ccccc1Cl)Cc1ccccc1Cl [ambenonium]
- DILI +VE (5-8), DILI -VE (-4) (in vivo): -VE
- DILI severity category (in vivo): vNo-DILI-Concern
